Laboratory results published in US20230201151A1, “FORMULATIONS AND METHODS FOR TREATING ACUTE RESPIRATORY DISTRESS SYNDROME, ASTHMA, OR ALLERGIC RHINITIS” (UNIVERSITY OF FLORIDA RESEARCH FOUNDATION, INC., priority 2020, published 2023).

What was measured:
ENaC = test: Benzamil-sensitive Isc (ENaC activity) in differentiated HBECs, Ussing chamber; format: cell-based, human
Procedure: High individual variation in benzamil-sensitive current and TEER in HBECs. In an Ussing chamber-based experimental design, basal short-circuit current (Isc) and transepithelial electrical resistance (TEER) were recorded in differentiated HBECs from two lung donors that were grown on snapwells at an air-liquid interface for 28 to 35 days. Benzamil, a potent ENaC blocker was used to determine ENaC activity by calculating benzamil-sensitive Isc from changes in Isc that occur 15 minutes after adding 6 μM benzamil to the apical side of cells. […] Therefore, normalized data were used for all subsequent experiments for statistical analyses relating to FIGS. 13-18.
Basal treatment with cytokines [IL-13 (Abcam), IL-4 (PeproTech), TNF-α, IFN-γ and TGF-β1 (R&D Systems)] diluted in ALI medium started as early as day 14 post differentiation. Individual cytokines or cytokine cocktails were added to the culture medium at the desired concentrations and cells were incubated with the cytokines for a maximum of 16 days. ALI medium containing cytokines was changed every two days. Age-matched HBECs were assigned to the following treatment groups:
II Time-dependent studies: These studies were done using a concentration that ensured maximum inhibition of benzamil-sensitive Isc and TEER. HBECs were treated with respective cytokines for 2, 4, 6, 8, 10, 12, 14, or 16 days. IFN-γ, TNF-α or TGF-β1 at 1 ng/mL, IL-13 at 20 ng/mL and IL-4 at 2 ng/mL were used.
III Cytokine cocktails: were prepared using IFN-γ and TNF-α at 0.05, 0.5, 2.5, 5 and 10 ng/mL while TNF-α, IFN-γ and TGF-β1 at 1 ng/mL for each of the cytokines was added to the culture media for 7 days.
Ussing chamber experiments: Snapwells with differentiated HBECs that were incubated with cytokines or age-matched HBECs without cytokine exposure were mounted in Ussing chambers (Physiologic Instruments), and cells were either bathed in isotonic ringer solution containing 113.8 mM Na^+, 93.6 mM Cl^−, 25 mM HCO3^−, 5.2 mM K^+, 2.4 mM HPO4^−, 0.4 mM H2PO4^−, 1.2 mM Mg^2+, 1.2 mM Ca^2+, and 75 mM mannitol, or in AA-EC01. Glucose (5 mM) was added to the basal side, and chambers were bubbled with 95% O2 and 5% CO2 at 37° C. AA-EC01 contained 8 mM lysine, 8 mM tryptophan, 8 mM arginine, 8 mM glutamine, and 1.2 mM tyrosine, and AANC contained 8 mM leucine, 8 mM cysteine, 8 mM isoleucine, 8 mM aspartic acid and 8 mM glutamate (Ajinomoto), both diluted in an electrolyte solution containing 113.8 mM Na^t, 93.6 mM Cl^−, 25 mM HCO3^−, 5.2 mM K^+, 2.4 mM HPO4^−, 0.4 mM H2PO4^−, 1.2 mM Mg′, 1.2 mM Ca^2+ and 40 mM mannitol at pH 7.4 and 300 mOsm. Cell cultures were allowed to equilibrate in the Ussing chambers for 30 minutes while continuously voltage clamped to 0 mV. Basal short circuit current (Isc) and transepithelial electrical resistance (TEER) were recorded at 30-second intervals, and benzamil-sensitive Isc was calculated from the difference of basal Isc recorded after 30 minutes and Isc measured at 15 minutes after adding 6 μM of benzamil (ThermoFisher) to the apical side.
Statistical analysis: Results are presented as mean±standard error of mean (SEM). Analyses were performed with OriginPro 2018 software package. For each treatment group, values were tested for normal distribution using the Shapiro-Wilk normality test. […] The values were normalized to controls within the group, and data were pooled for comparison between groups. Kruskal-Wallis test was used for comparing the overall effect of ringer, AA-EC01 and AANC on benzamil-sensitive Isc and TEER, and Mann Whitney U test was used for pairwise comparison within the group and for comparison between basal values for each cytokine at zero ng/mL or day zero with each concentration and time period studied. P<0.05 was considered significant, and NS indicates not significant.

HBEC = test: Barrier function in IL-13-treated differentiated HBEC, Examples 1-2; format: cell-based, human; conditions: IL-13 20 ng/mL
Procedure: Experimental design: IL-13 treatment with 20 ng/mL media for 4 and 14 days. Ussing chamber experiment in Basic Ringer (5 mM glucose in basolateral side).
To investigate the importance of ENaC during inflammation and explore how its activity is modulated during the evolution of ARDS, the present inventors used primary cultures of human bronchial epithelial cells (HBEC) harvested from normal human lungs, which had been differentiated in vitro in an air-media interphase (air on the apical side and media on the basolateral side) for 30 days. Differentiated HBEC were used for electrophysiology experiments to evaluate the effect of IL-13 on these cells. […] Similarly, IL-13 (20 ng/mL) caused a maximum reduction in barrier function on day 8 of exposure.

Substance: IL-13: Th2 cytokine (Abcam) added to HBEC culture medium
- benzamil-sensitive Isc, normalized to control (ENaC; IL-13 0.1 ng/mL, 14 days): 50.9±9.6%
- day by which benzamil-sensitive Isc was completely suppressed (ENaC; IL-13 20 ng/mL, 16-day incubation): ≤ 8 days
- benzamil-sensitive Isc, of baseline value (ENaC; IL-13 20 ng/mL, day 2): 25.0±5%
- concentration at which benzamil-sensitive Isc was completely abolished (ENaC; IL-13, 14 days): 8 ng/mL
- day of maximum reduction in barrier function (HBEC): 8 days
